Results as given in patent US20210299079A1, “MONOMETHYL FUMARATE-CARRIER CONJUGATES AND METHODS OF THEIR USE” (Flagship Pioneering Innovations V, Inc., priority 2018, published 2021).
Where a name gives a salt, the structure may show the parent alone.

Assays:
Format in all cases: in vitro ADME
[1] = Stability of conjugates in Simulated Gastric Fluid (SGF); conditions: SGF pH 1.6 with pepsin, 37° C., 1 μM compound
Method: Assay 1. Stability of conjugates in Simulated Gastric Fluid (SGF). This assay was used to assess the stability of a conjugate in a stomach.
Medium was prepared by dissolving 2 g of sodium chloride in 0.6 L in ultrapure water (MilliQ®, Millipore Sigma, Darmstadt, Germany). The pH was adjusted to 1.6 with 1N hydrochloric acid, and the volume was then adjusted to 1 L with purified water.
60 mg FaSSIF powder (Biorelevant™, London, UK) were dissolved in 500 mL buffer (above). Pepsin was added (0.1 mg/mL) (Millipore Sigma, Darmstadt, Germany), and the solution was stirred. The resulting SGF media were used fresh for each experiment.
(§1) Test compounds were dissolved in DMSO stock to 1 mM. An aliquot of the DMSO stock solution was removed and diluted in the SGF Media in 15 mL falcon tubes to generate a total compound concentration of 1 μM. A 1 mL aliquot was immediately removed and diluted once with 1 volume of acetonitrile for TO timepoint. The mixture was sealed and mixed at 37° C. in an incubator. Aliquots (1 mL) were removed at regular intervals and immediately quenched by the addition of 1 volume of acetonitrile. The resulting samples were analyzed by LC/MS to determine degradation rates in SGF.

[2] = Stability of conjugates in Simulated Intestinal Fluid (SIF); conditions: SIF pH 6.7 with pancreatin, 37° C., 1 μM compound
Method: Assay 2. Stability of conjugates in Simulated Intestinal Fluid (SIF). This assay was used to assess the stability of a conjugate in a small intestine.
Phosphate buffer was prepared by dissolving 0.42 g of sodium hydroxide pellets and 3.95 g of monobasic sodium phosphate monohydrate and 6.19 g of sodium chloride in ultrapure water (MilliQ®, Millipore Sigma, Darmstadt, Germany). The pH was adjusted to 6.7 using aq. HCl and aq. NaOH, as necessary, and the solution was diluted with ultrapure water to produce 1 L of the pH 6.7 buffer.
112 mg FaSSIF powder (Biorelevant™, London, UK) was dissolved in 50 mL of the pH 6.7 buffer. 2 to 3 mL of the resulting solution were then added to 500 mg pancreatin (Millipore Sigma, Darmstadt, Germany). The resulting mixture was agitated by finger tapping the vessel containing the mixture until milky suspension formed. At this time, the remainder of the 50 mL FaSSiF/pH 6.7 buffer solution was added. The resulting suspension was flipped upside down 10 times to produce SIF, which was used fresh.
as §1, with “SIF media” for “SGF Media”, “produce” for “generate”, “mixture with a tested” for “total”, “agitated” for “mixed”, “rates” for “rates in SGF.”

[3] = In vitro Colonic Material Stability Assay; conditions: colonic material slurry in YCFAC media, anaerobic, 1 or 10 μM
Method: Assay 3. In vitro Colonic Material Stability Assay. This assay was used to assess the stability of a conjugate in a large intestine. All experiments were performed in an anaerobic chamber containing 90% nitrogen, 5% hydrogen and 5% carbon dioxide. Colonic material was resuspended as a slurry (15% w/v final concentration) in pre-reduced, anaerobically sterilized dilution blanks (Anaerobe Systems AS-908). The colonic material was then inoculated into 96 well plates containing YCFAC media (Anaerobe Systems AS-680) or other suitable media (6.7 μL slurry into 1 mL total media). Compounds or groups of compounds were added to each individual well to reach a final analyte concentration of 1 or 10 μM, and the material was mixed by pipetting. Sample was removed after set timepoints (0, 120, 240, 480, 1440, 2880 minutes after initiation of the assay), quenched with acetonitrile containing internal standard, and analyzed by LC/MS.

| Compound | Assay 1 (SGF) (% Remaining @ 1 hour) [1] | Assay 2 (SIF) (% @ Remaining 4 hours) [2] | Assay 3 (% Remaining at 24 h) [3] |
| --- | --- | --- | --- |
| CCC(=O)OC[C@H]1O[C@H](OC(=O)/C=C/C(=O)OC)[C@H](OC(=O)CC)[C@@H](OC(=O)CC)[C@@H]1OC(=O)CC [Compound 4, Methyl ((2R,3R,4S,5R,6R)-3,4,5-tris(propionyloxy)-6-((propionyloxy)methyl)tetrahydro-2H-pyran-2-yl) fumarate] | B (B: 25-75% of the tested compound remaining) | C (C: >75% of the tested compound remaining) | B (B: 25-75% of the tested compound remaining) |
| CCC(=O)O[C@@H]1[C@@H](OC(=O)CC)[C@H](OC(=O)/C=C/C(=O)OC)OC[C@@H]1OC(=O)CC [Compound 5, Methyl ((2S,3R,4S,5S)-3,4,5-tris(propionyloxy)tetrahydro-2H-pyran-2-yl) fumarate] | C (C: >75% of the tested compound remaining) | C (C: >75% of the tested compound remaining) | A (A: <25% of the tested compound remaining) |
| CCCC(=O)O[C@@H]1[C@@H](OC(=O)CCC)[C@H](OC(=O)/C=C/C(=O)OC)OC[C@H]1OC(=O)CCC [Compound 7, Methyl ((2S,3R,4S,5R)-3,4,5-tris(butyryloxy)tetrahydro-2H-pyran-2-yl) fumarate] | C (C: >75% of the tested compound remaining) | A (A: <25% of the tested compound remaining) | C (C: >75% of the tested compound remaining) |
| CCCC(=O)O[C@@H]1[C@@H](OC(=O)CCC)[C@@H](OC(=O)/C=C/C(=O)OC)OC[C@H]1OC(=O)CCC [Compound 8, Methyl ((2R,3R,4S,5R)-3,4,5-tris(butyryloxy)tetrahydro-2H-pyran-2-yl) fumarate] | C (C: >75% of the tested compound remaining) | A (A: <25% of the tested compound remaining) | C (C: >75% of the tested compound remaining) |
| CCC(=O)O[C@H]1[C@@H](OC(=O)/C=C/C(=O)OC)OC[C@@H](OC(=O)CC)[C@H]1OC(=O)CC [Compound 9, Methyl ((2R,3R,4R,5R)-3,4,5-tris(propionyloxy)tetrahydro-2H-pyran-2-yl) fumarate] | C (C: >75% of the tested compound remaining) | A (A: <25% of the tested compound remaining) | C (C: >75% of the tested compound remaining) |
| CCCC(=O)OC[C@H]1O[C@@H](OC(=O)/C=C/C(=O)OC)[C@H](OC(=O)CCC)[C@@H](OC(=O)CCC)[C@@H]1OC(=O)CCC [Compound 10, Methyl ((2S,3R,4S,5R,6R)-3,4,5-tris(butyryloxy)-6-((butyryloxy)methyl)tetrahydro-2H-pyran-2-yl) fumarate] | B (B: 25-75% of the tested compound remaining) | B (B: 25-75% of the tested compound remaining) | B (B: 25-75% of the tested compound remaining) |
| CCC(=O)OC[C@H]1O[C@@H](OC(=O)/C=C/C(=O)OC)[C@H](N)[C@@H](OC(=O)CC)[C@@H]1OC(=O)CC.Cl [Compound 27, (2S,3R,4R,5S,6R)-2-(((E)-4-methoxy-4-oxobut-2-enoyl)oxy)-4,5-bis(propionyloxy)-6-((propionyloxy)methyl)tetrahydro-2H-pyran-3-aminium Chloride] | – | C (C: >75% of the tested compound remaining) | B (B: 25-75% of the tested compound remaining) |
| CCCC(=O)OC[C@H]1O[C@H](OC(=O)/C=C/C(=O)OC)[C@H](N)[C@@H](OC(=O)CCC)[C@@H]1OC(=O)CCC.Cl [Compound 28, (2R,3R,4R,5S,6R)-4,5-bis(butyryloxy)-6-((butyryloxy)methyl)-2-(((E)-4-methoxy-4-oxobut-2-enoyl)oxy)tetrahydro-2H-pyran-3-aminium Chloride] | – | B (B: 25-75% of the tested compound remaining) | B (B: 25-75% of the tested compound remaining) |
